Consider twelve compounds from patent US20120122923A1, “DUAL MOLECULES CONTAINING A PEROXIDE DERIVATIVE, THEIR SYNTHESIS AND THERAPEUTIC USES” (SANOFI-AVENTIS, priority 2006, published 2012).

Structures are written as SMILES. Like-named read-outs stand apart in the source and are kept apart here.

A short description of data set [1]: Metabolic stability on human hepatic microsomes. It counts as in vitro ADME. The settings on record: for Percentage metabolization: human hepatic microsomes 1 mg/ml, 5 μM substrate, 1 mM NADPH, 20 minutes at 37° C., degradation with respect to T0. On the procedure:
These experiments were carried out on human hepatic microsomes in the presence of NADPH cofactor, necessary for the activity of the principal enzymes, namely cytochromes P-450 (CYP) and flavine mono-oxygenases (FMO). […] After 20 minutes, the reaction was stopped by adding 1 volume of acetonitrile. The supernatant was then removed after centrifuging (speed 3000 g for 10 minutes at 4° C.). The supernatant was analysed by high performance liquid chromatography coupled to a mass spectrometer (LC-MS/MS) and the degradation of each of the test compounds was calculated as a percentage (%) with respect to T0. The microsomal fractions were prepared from human hepatic tissue deriving from at least 12 different donors and frozen at −80° C. The tissue was defrosted then dried, weighed and cut into thin sheets before homogenizing. The tissue was homogenized using a Potter-Elvejheim type homogenizer at +4° C. The tissue homogenates were then centrifuged at 10000 g for 30 minutes at +4° C. […] The residue was finally taken up into suspension in a final volume of KH2PO4/K2HPO4 buffer containing 20% (v/v) of glycerol (1 ml for 2 grams of tissue). The hepatic microsomal fractions obtained were divided into aliquots (500 μl), frozen rapidly in liquid nitrogen and kept frozen at −80° C. until use. concentration of microsomal proteins: 1 mg/ml; concentration of BSA (bovine serum albumin (BSA): 1 mg/ml; concentration of substrate (test compound): 5 μM; CYP and FMO co-factors: 1 mM NADPH; Phosphate buffer (pH 7.4): 10 mM. • The reaction was initiated by adding 1 mM of NADPH and incubating for 20 minutes at 37° C., with stirring. The reaction was stopped by adding 1 volume of cold acetonitrile. • Total incubation volume=300 μl

Data set [2] relates to P. falciparum FcM29-Cameroon strain. Description: Chemosensitivity test (radioactive micromethod, tritiated hypoxanthine incorporation), FcM29-Cameroon strain. The class given is cell-based. The settings on record: Plasmodium falciparum, 48 h, read-out: IC50 (concentration required to inhibit parasite growth by 50%). On the procedure:
(§1) Strains of P. falciparum were cultivated continuously using Trager and Jensen's method (Science, 1976, 193, 673-675): the parasites were maintained in human red blood corpuscles (O±), diluted to a blood parasite level of 2% in RPMI 1640 medium supplemented with 25 mM Hepes+24 mM NaHCO3+2 mM L-glutamine and complemented with 5% human serum from all groups.
(§2) The parasites were incubated at 37° C., in a moist atmosphere and 5% CO2.
The antimalarial activity tests were carried out using the radioactive micromethod of Desjardins et al. (Antimicrob. Agents Chemother., 1979, 16, 710-718). Each molecule was tested in triplicate. The tests were carried out in 96 well microplates. The P. falciparum strains were cultured in RPMI 1640 solutions complemented with 5% human serum with haematocrit at 2% and a blood parasite level of 1.5%. For each test, the parasites were incubated with decreasing concentrations of test compounds for 48 h at 37° C., in a moist atmosphere and 5% CO2. The artemisinin and chloroquine diphosphate were used as reference molecules. The first dilution of the test compounds was carried out at 1 mg/ml in dimethylsulphoxide. The dilution series for the successive daughter solutions was also prepared in dimethylsulphoxide. Each daughter dilution was then diluted to 1/50th in RPMI 1640 complemented with 5% human serum, all of the dilutions being made at 37° C. Said dilutions were then added to the parasites in culture in the microplates. After adding the test compound, the parasites were cultured in RPMI 1640 with 5% human serum and 1% dimethylsulphoxide. Parasite growth was measured by the incorporation of tritiated hypoxanthine (added 24 h after beginning exposure to the test compound) and compared with the incorporation in the absence of the test compound (taken as 100%). The values for IC50 (concentrations required to inhibit parasite growth by 50%) were determined by plotting the percentage inhibition as a function of the logarithm of the dose using GraphPad Prism 4® processing software (GraphPad software, Inc., 5755 Oberlin Drive, #110, San Diego, Calif. 92121, USA).

Data set [3] concerns P. falciparum FcB1-Columbia strain. Kind of data set: Chemosensitivity test (radioactive micromethod, tritiated hypoxanthine incorporation), FcB1-Columbia strain. The class given is cell-based. Conditions: Plasmodium falciparum, read-out: IC50 (concentration required to inhibit parasite growth by 50%). On the procedure:
as §1, §2
The antimalarial activity tests were carried out using the radioactive micromethod of Desjardins et al. (Antimicrob. Agents Chemother., 1979, 16, 710-718). Each molecule was tested in triplicate. The tests were carried out in 96 well microplates. The P. falciparum strains were cultured in RPMI 1640 solutions complemented with 5% human serum with haematocrit at 2% and a blood parasite level of 1.5%. For each test, the parasites were incubated with decreasing concentrations of test compounds for 48 h at 37° C., in a moist atmosphere and 5% CO2. The artemisinin and chloroquine diphosphate were used as reference molecules. The first dilution of the test compounds was carried out at 1 mg/ml in dimethylsulphoxide. […] Parasite growth was measured by the incorporation of tritiated hypoxanthine (added 24 h after beginning exposure to the test compound) and compared with the incorporation in the absence of the test compound (taken as 100%). […]

The mark [4] stands for this setting: FcM29-Cameroon strain (very strongly chloroquine-resistant), in human red blood corpuscles.
[5] abbreviates: human hepatic microsomes, from Table 2.

`CC(C)C1=C[C@H]2OC3(CCC(NCCNc4ccnc5cc(Cl)ccc45)CC3)OO[C@H]2CC1` (some centres unmarked) [DU1302, reference compound]: the Percentage metabolization in data set [1] was 95-100%.

As usually defined, the melting point is the temperature, or range, at which the solid turns liquid. For the compound `CC1(C)COC2(CCC(NC3CCC(Nc4ccnc5ccc(OC(F)(F)F)cc45)CC3)CC2)OO1` (stereo not drawn) [PA1305, N-(6-trifluoromethoxy-quinolin-4-yl)-N′-(3,3-dimethyl-1,2,5-trioxa-spiro[5.5]undec-9-yl)-cyclohexane-trans-1,4-diamine], the melting point is 165 °C (dec.).

On to `CC1(C)COC2(CCC(NC3CCC(Nc4ccnc5cc(Cl)ccc45)CC3)CC2)OO1` (stereo not drawn) [PA1103, N-(7-chloro-quinolin-4-yl)-N′-(3,3-dimethyl-1,2,5-trioxa-spiro[5.5]undec-9-yl)-cyclohexane-trans-1,4-diamine], for which the melting point is 176 °C (dec.). In data set [2] (setting [4]), the IC50 amounted to 6 nM. The Percentage metabolization in data set [1] is 11%. Moreover, in data set [1] (setting [5]), the “times less degraded than chloroquine” value is listed as “about 3 times” and the “times less degraded than the prior art compounds” value is “about 10 times”. For the same compound, the “stability in human hepatic microsomes compared with the other test compounds” value in data set [1] (in words) is on record as “much more stable”.

Take `CC1(C)COC2(CCC(NC3CCC(Nc4ccnc5cc(C(F)(F)F)ccc45)CC3)CC2)OO1` (stereo not drawn) [PA1252, N-(3,3-dimethyl-1,2,5-trioxa-spiro[5.5]undec-9-yl)-N′-(7-trifluoromethyl-quinolin-4-yl)-cyclohexane-trans-1,4-diamine]: the melting point was 166.5 °C (dec.).

In the case of `CC1(C)COC2(CCC(N[C@@H]3CCCC[C@H]3Nc3ccnc4cc(Cl)ccc34)CC2)OO1` (stereo partly drawn) [PA1188, N-(7-chloro-quinolin-4-yl)-N′-(3,3-dimethyl-1,2,5-trioxa-spiro[5.5]undec-9-yl)-cyclohexane-trans-1,2-diamine], the IC50 in data set [2] (setting [4]) was determined as 4 nM.

Compound `C[C@H]1[C@H](OC(=O)CCC(=O)O)O[C@@H]2O[C@@]3(C)CC[C@H]4[C@H](C)CC[C@@H]1[C@@]24OO3` [artesunate, reference compound] yielded a Percentage metabolization in data set [1] of 100%.

On to `CCN(CC)CCCC(C)Nc1ccnc2cc(Cl)ccc12` (centres unmarked) [chloroquine, reference compound], for which the IC50 in data set [2] was 258 nM; in data set [3] (FCB1, 48 h) it was 66 nM. This compound showed a Percentage metabolization in data set [1] of 29%.

Consider `C[C@@H]1CC[C@H]2[C@@H](C)C(=O)O[C@@H]3O[C@@]4(C)CC[C@@H]1[C@]32OO4` [artemisinin, reference compound], for which the IC50 amounted to 5 nM in data set [2] (setting [4]) and 11 nM in data set [3] (FcB1-Columbia strain (moderately chloroquine-resistant), in human red blood corpuscles, 48 h).

For `CC1(C)COC2(CCC(NC3CCC(Nc4cc(C(F)(F)F)nc5c(C(F)(F)F)cccc45)CC3)CC2)OO1` (stereo not drawn) [PA1251, N-(2,8-bis-trifluoromethyl-quinolin-4-yl)-N′-(3,3-dimethyl-1,2,5-trioxa-spiro[5.5]undec-9-yl)-cyclohexane-trans-1,4-diamine], the melting point is 168 °C (dec.).

With `CC1OOC2(CCC(NC3CCC(Nc4ccnc5cc(Cl)ccc45)CC3)CC2)OC1C` (stereo not drawn) [PA1255, N-(7-chloro-quinolin-4-yl)-N′-(3,4-dimethyl-1,2,5-trioxa-spiro[5.5]undec-9-yl)-cyclohexane-trans-1,4-diamine], the melting point was 166 °C (dec.).

On to `CN(C)c1ccc2nccc(NC3CCC(NC4CCC5(CC4)OCC(C)(C)OO5)CC3)c2c1` (stereo not drawn) [PA1253, N-(3,3-dimethyl-1,2,5-trioxa-spiro[5.5]undec-9-yl)-N′-(6-dimethylamino-quinolin-4-yl)-cyclohexane-trans-1,4-diamine], for which the melting point is 193 °C (dec.).

`Clc1ccc2c(NCCN3CCC4(CC3)OCC3(CCCCC3)OO4)ccnc2c1` [PA1110, reference compound]: the Percentage metabolization in data set [1] was found to be 98%.
